#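 Tested at 5 concentrations; 48 h exposure; 96-well plates; endpoints linearly interpolated, else capped at highest concentration. The concentration for 50% growth inhibition is given as GI50.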 The source made the active and inactive calls. No stated cut-off is given here; in the data, active = GI50 up to about 1.1 µM and inactive = higher.
# Legend:
# Test in all cases: NCI tumour cell line growth inhibition, 48 h
# [1] = system: MOLT-4
# [2] = system: NCI-H23
# [3] = system: SK-OV-3
# [4] = system: PC-3
# [5] = system: DU-145
# [6] = system: RXF 393
# [7] = system: A498
# [8] = system: OVCAR-4
# [9] = system: K562
# [10] = system: HOP-92
# [11] = system: SK-MEL-5
# [12] = system: KM12
# [13] = system: NCI-H460
# [14] = system: LOX IMVI
# [15] = system: Malme-3M
# [16] = system: HCT-15
# [17] = system: NCI-H522
# [18] = system: NCI-H226
# [19] = system: SNB-75
# [20] = system: RPMI-8226
SMILES,GI50 [1],GI50 [2],GI50 [3],GI50 [4],GI50 [5],GI50 [6],GI50 [7],GI50 [8],GI50 [9],GI50 [10],GI50 [11],GI50 [12],GI50 [13],GI50 [14],GI50 [15],GI50 [16] [µM],GI50 [17],GI50 [18],GI50 [19],GI50 [20]
Nc1nc(-c2ccccc2)c(-c2ccccc2)c(-c2nc(N)nc(-c3ccccc3)c2-c2ccccc2)n1,> 100 µM (inactive),> 100 µM (inactive),> 100 µM (inactive),> 100 µM (inactive),> 100 µM (inactive),94 µM (inactive),75.5 µM (inactive),91 µM (inactive),> 100 µM (inactive),> 100 µM (inactive),> 100 µM (inactive),> 100 µM (inactive),74.3 µM (inactive),> 100 µM (inactive),> 100 µM (inactive),> 100,57.9 µM (inactive),> 100 µM (inactive),88.7 µM (inactive),
CC1=CC(=O)CC(C)(C)C1(O)/C=C/C(C)=C/C(=O)O (centres undefined),> 100 µM (inactive),> 100 µM (inactive),> 100 µM (inactive),> 100 µM (inactive),> 100 µM (inactive),> 100 µM (inactive),> 100 µM (inactive),> 100 µM (inactive),> 100 µM (inactive),> 100 µM (inactive),> 100 µM (inactive),> 100 µM (inactive),> 100 µM (inactive),> 100 µM (inactive),> 100 µM (inactive),> 100,> 100 µM (inactive),> 100 µM (inactive),> 100 µM (inactive),> 100 µM (inactive)
O=c1[nH]nc(-c2ccccc2)n1/N=C/c1ccc([N+](=O)[O-])cc1,> 100 µM (inactive),> 53.2 µM (inactive),2.94 µM (inactive),> 100 µM (inactive),56.1 µM (inactive),8.43 µM (inactive),14.6 µM (inactive),3.85 µM (inactive),> 100 µM (inactive),10 µM (inactive),> 100 µM (inactive),> 100 µM (inactive),22.9 µM (inactive),31.1 µM (inactive),> 100 µM (inactive),> 100,> 100 µM (inactive),27.6 µM (inactive),10.4 µM (inactive),> 100 µM (inactive)
COCCOC1=CC(=O)c2c(O)ccc(O)c2C1=O,2.43 µM (inactive),1.12 µM (active),8.41 µM (inactive),2.34 µM (inactive),0.893 µM (active),2.19 µM (inactive),1.79 µM (inactive),1.89 µM (inactive),2.69 µM (inactive),2.13 µM (inactive),0.163 µM (active),1.93 µM (inactive),1.58 µM (inactive),0.726 µM (active),0.167 µM (active),1.02,2.29 µM (inactive),2.23 µM (inactive),2 µM (inactive),4.28 µM (inactive)
Cc1sc2nc3n(c(=O)c2c1C)N=C(c1ccc(Cl)cc1)CS3,> 100 µM (inactive),> 100 µM (inactive),> 100 µM (inactive),> 100 µM (inactive),> 100 µM (inactive),> 100 µM (inactive),> 100 µM (inactive),> 100 µM (inactive),> 100 µM (inactive),> 100 µM (inactive),> 100 µM (inactive),> 100 µM (inactive),> 100 µM (inactive),> 100 µM (inactive),> 100 µM (inactive),> 100,> 100 µM (inactive),> 100 µM (inactive),48.2 µM (inactive),> 100 µM (inactive)
CC(C)NC(=O)OCc1c(COC(=O)NC(C)C)c(-c2cc[n+](COC(=O)C(C)C)cc2)n2c1CCC2,> 46.9 µM (inactive),> 90.4 µM (inactive),98.4 µM (inactive),> 59.6 µM (inactive),> 100 µM (inactive),21 µM (inactive),13.9 µM (inactive),> 100 µM (inactive),> 100 µM (inactive),69.7 µM (inactive),> 100 µM (inactive),> 100 µM (inactive),41.6 µM (inactive),> 50.7 µM (inactive),> 100 µM (inactive),> 100,> 72.1 µM (inactive),> 100 µM (inactive),> 53.5 µM (inactive),> 100 µM (inactive)
O=C1Nc2ccccc2S/C1=C\c1ccccc1C(F)(F)F,> 100 µM (inactive),,89.5 µM (inactive),> 100 µM (inactive),> 100 µM (inactive),> 100 µM (inactive),> 10 µM (inactive),18.8 µM (inactive),,5.38 µM (inactive),> 100 µM (inactive),> 100 µM (inactive),94.6 µM (inactive),> 100 µM (inactive),> 100 µM (inactive),> 100,30.5 µM (inactive),> 100 µM (inactive),34.4 µM (inactive),64.1 µM (inactive)
CC(=O)O[C@H]1CC[C@@]2(C)C(=CC[C@@H]3[C@@H]2CC[C@]2(C)C(=N/O)/C(=C\c4ccccc4)C[C@@H]32)C1,3.08 µM (inactive),16.3 µM (inactive),28.9 µM (inactive),5.96 µM (inactive),23.4 µM (inactive),9.48 µM (inactive),13.4 µM (inactive),30.1 µM (inactive),31.2 µM (inactive),41.1 µM (inactive),2.08 µM (inactive),3.2 µM (inactive),17.5 µM (inactive),9.14 µM (inactive),4.14 µM (inactive),16.5,3.53 µM (inactive),12.5 µM (inactive),33.6 µM (inactive),33.7 µM (inactive)
COC(=O)c1cc(C)ccc1CC(Cc1ccccc1C)C(=O)OC (centres undefined),2.56 µM (inactive),40.1 µM (inactive),> 100 µM (inactive),55.2 µM (inactive),> 100 µM (inactive),26.9 µM (inactive),60.4 µM (inactive),29.7 µM (inactive),10.6 µM (inactive),14.4 µM (inactive),14.1 µM (inactive),23.8 µM (inactive),78 µM (inactive),12.5 µM (inactive),23.2 µM (inactive),21.4,25.8 µM (inactive),81.7 µM (inactive),> 100 µM (inactive),
CCOC(=O)c1c(N=P(c2ccccc2)(c2ccccc2)c2ccccc2)nnc(-c2ccccc2)c1-c1ccccc1,> 100 µM (inactive),> 100 µM (inactive),> 100 µM (inactive),> 100 µM (inactive),> 100 µM (inactive),61.1 µM (inactive),25.9 µM (inactive),> 100 µM (inactive),> 100 µM (inactive),5.52 µM (inactive),> 100 µM (inactive),> 100 µM (inactive),> 100 µM (inactive),> 100 µM (inactive),> 100 µM (inactive),> 100,> 100 µM (inactive),> 100 µM (inactive),6.68 µM (inactive),
CCCCCCCCCCCCOC1C(COCCN2CCCC2)OC2OC(C)(C)OC21 (centres undefined),1.92 µM (inactive),1.72 µM (inactive),1.63 µM (inactive),1.65 µM (inactive),10.9 µM (inactive),1.57 µM (inactive),14 µM (inactive),2.03 µM (inactive),1.23 µM (inactive),1.39 µM (inactive),1.6 µM (inactive),,,1.4 µM (inactive),1.92 µM (inactive),1.76,1.23 µM (inactive),2.56 µM (inactive),1.83 µM (inactive),2.52 µM (inactive)
CC(C)(C)c1cc(C2=NNC(c3ccccc3)C2)cc(C(C)(C)C)c1O (centres undefined),16.6 µM (inactive),17.2 µM (inactive),18.5 µM (inactive),14.6 µM (inactive),15.5 µM (inactive),10.1 µM (inactive),15.3 µM (inactive),14.2 µM (inactive),,14.9 µM (inactive),11 µM (inactive),13.6 µM (inactive),15.4 µM (inactive),15.9 µM (inactive),17.9 µM (inactive),13.8,14.7 µM (inactive),17.2 µM (inactive),10.3 µM (inactive),15 µM (inactive)
O=C(NCCNCCCNC(=O)c1cc(-c2ccccc2)nc2ccccc12)c1cccc(O)c1O,0.916 µM (active),6.14 µM (inactive),6.11 µM (inactive),5.94 µM (inactive),3.61 µM (inactive),4.84 µM (inactive),15.8 µM (inactive),,2 µM (inactive),14.9 µM (inactive),1.36 µM (inactive),4.44 µM (inactive),2.36 µM (inactive),3.33 µM (inactive),3.82 µM (inactive),5.36,6.82 µM (inactive),18.5 µM (inactive),10.6 µM (inactive),2.85 µM (inactive)
Nc1c(C(=O)c2ccc(Cl)cc2)[nH]c(NCc2ccccc2)c1C(=S)Nc1ccccc1,2.58 µM (inactive),2.39 µM (inactive),20.1 µM (inactive),5.31 µM (inactive),3.44 µM (inactive),1.79 µM (inactive),9.98 µM (inactive),1.66 µM (inactive),2.08 µM (inactive),2.84 µM (inactive),,1.67 µM (inactive),1.77 µM (inactive),1.8 µM (inactive),,1.79,1.82 µM (inactive),7.91 µM (inactive),1.71 µM (inactive),1.79 µM (inactive)
